In US20190352358A1, “COMPOUNDS, COMPOSITIONS AND USES THEREOF FOR IMPROVEMENT OF BONE DISORDERS” (ALIZE PHARMA III SAS, priority 2017, published 2019):
Residues, ends and D or L forms follow the SMILES beside them. No end group written: not given here. *: point of attachment. Arachidoyl = CCCCCCCCCCCCCCCCCCCC(=O)*; Stearoyl = CCCCCCCCCCCCCCCCCC(=O)*; Palmitoyl = CCCCCCCCCCCCCCCC(=O)*; Myristoyl = CCCCCCCCCCCCCC(=O)*

Columns and labels:
[1] = Stability of HBD1 fragments in human plasma; assay type: in vitro ADME; conditions: for stability in human plasma (in words): 24 and 48 hours incubation at 37° C.; for remaining at 24 h, 1 μg/mL / remaining at 48 h, 1 μg/mL: human, human K2EDTA plasma; for remaining at 24 h, 1 μg/mL / remaining at 48 h, 1 μg/mL / Remaining parent peptide in human plasma 48 hours post spike / Remaining parent peptide in human plasma 24 hours post spike: spiked at 1 μg/mL, 37° C.; for remaining at 24 h, 1 μg/mL: read-out: Remaining parent peptide in human plasma 24 hours post spike; for remaining at 48 h, 1 μg/mL: read-out: Remaining parent peptide in human plasma 48 hours post spike
Method: The peptides were spiked at 1 μg/mL (peptide backbone) into pre-warmed human K2EDTA plasma (at 37° C.) and incubated for up to 48 hours. Aliquots of plasma were extracted at specific time points (0, 24 and 48 hours post spike). Extraction was performed with acetonitrile:water (75:25, v/v) for HBD1 (1-13), HBD1 (1-13) with palmitic acid at the N-terminus (C16:0), HBD1 (3-11) with palmitic acid at the N-terminus (C16:0)) and HBD1 (3-11) with stearic acid at the N-terminus (C18:0) or with acetonitrile:water:formic acid (75:25:0.1, v/v/v) for HBD1 (3-11) and cyclic HBD1 (3-11). The peptides were analyzed using developed LC (C18 reverse phase column)—positive ion electrospray MS/MS methods specific to each peptide. The peak area at each time point was expressed as a percentage of the value obtained for the t=0 minutes time point.

[2] = Pharmacokinetics of acylated analogs in male Sprague Dawley rats after subcutaneous injection (Example 11); assay type: in vivo; parameters: AUC(0-t): concentration or dose not given beside the values; conditions: sc, rat; for AUC(0-t) / Cmax / Tmax: male, Sprague Dawley, plasma; for AUC(0-t) / Cmax / Tmax / Tlast (last time point with detectable peptide): Table 24
Method: The peptides were reconstituted in saline (0.9% NaCl). Three male Sprague Dawley rats (approximately 6 weeks of age) were used per group. Subcutaneous doses were administered into the right flank of each animal […]. Following dosing, serial whole blood samples (ca. 0.3 mL) were collected from retro-orbital sinus into K2EDTA treated containers. Following each blood sample collection, samples were placed into a cooling block at 4° C. Samples were collected prior to dosing then at 15 and 30 minutes then 1, 2, 4, 6, 8 and 24 hours post dose for subcutaneous injection. Blood samples were centrifuged at 3500×rpm for 10 minutes at 4° C. and resultant plasma aspirated off into clean fully, labelled tubes. Plasma samples were snap frozen following aspiration then stored at −80° C. The peptides were extracted with acetonitrile:water (75:25, v/v) and analyzed using developed LC-MS/MS methods as described in Example 9. The limits of detection of these methods are 0.003 nmol/mL for HBD1 (1-13) with palmitic acid at the N-terminus (C16:0), 0.0008 nmol/mL for HBD1 (3-11) with palmitic acid at the N-terminus (C16:0), 0.0070 nmol/mL for HBD1 (3-11) with stearic acid at the N-terminus (C18:0), and 0.0015 nmol/mL for HBD1 (3-11) with myristic acid at the N-terminus (C14:0), HBD1 (3-11) with arachidic acid at the N-terminus (C20:0), HBD1 (3-11) with palmitic diacid at the N-terminus (C16:0-diacid), HBD1 (3-11) with palmitic acid at the C-terminus (C16:0). All values below these limits of quantification were considered as zero.

[3] = Pharmacokinetics in male Sprague Dawley rats after intravenous and subcutaneous injection (Example 10); assay type: in vivo; conditions: 1 μmol net peptide/kg, rat; for exposure after administration by either dose route (in words): iv and sc
Method: The peptides were reconstituted in saline (0.9% NaCl). Three male Sprague Dawley rats were used per group. Intravenous doses were administered into a lateral tail vein at the dose of 1 μmol net peptide/kg. Subcutaneous doses were administered into the right flank of each animal, also at the dose of 1 μmol net peptide/kg. Following dosing, serial whole blood samples (ca. 0.25 mL) were collected from a lateral tail vein into K2EDTA treated containers. Following each blood sample collection, samples were placed into a cooling block at 4° C. Samples were collected prior to dosing then at 2, 5, 15 and 30 minutes then 1, 2, 4, 6 and 8 and 24 hours post dose for intravenous injection and at 15 and 30 minutes then 1, 2, 4, 6, 8 and 24 hours post dose for subcutaneous injection.
Blood samples were centrifuged at 10000×g for 2 minutes at 4° C. and resultant plasma aspirated off into clean fully, labelled tubes. Plasma samples were snap frozen following aspiration then stored at −80° C. Peptides were extracted and analyzed as described in Example 9. The limits of quantification of these methods were 0.001 nmol/mL for cyclic HBD1 (3-11) and HBD1 (3-11) and 0.003 nmol/mL for HBD1 (1-13). All values below these limits of quantification were considered as zero.

[4] = system: MC-3T3 E1 clone 4 (CL4) osteoblast cells; test: Osteocalcin expression during in vitro osteoblast differentiation, acylated and cyclic analogs (Example 7); assay type: cell-based; conditions: Table 18; test peptide 1 μg/L; 18-21 day interval
Method: Each acylated peptide was tested in a biologic assay measuring its ability to stimulate differentiation of osteoblast cells over a 18-21 day interval as assessed by the stimulation of osteocalcin protein synthesis. MC-3T3 E1 clone 4 (CL4) osteoblast cells were obtained from ATCC (Manassas, Va., USA). Cells were cultured in α-MEM containing 10% fetal bovine serum (FBS; Thermo Fisher Scientific, Pittsburgh, Pa., USA). After confluency, culture medium was changed to differentiation medium (DM), which contained 10% FBS plus 50 μg/mL ascorbic acid and 4 mM β-glycerol phosphate, with or without a test peptide (1 μg/L). Fresh DM, with or without test peptide, was applied every 72 hours. The cell monolayers were lysed in a modified radioimmunoprecipitation assay (RIPA) buffer. Total cellular protein in the lysates was determined using BCA (Thermo Fisher Scientific, Rockford, Ill., USA). Cell proteins are separated on SDS-PAGE gel and transferred on PVDF membrane for analysis. Osteocalcin detection was performed using anti-osteocalcin antibody at 1:200 dilution (Santa Cruz Biotechnology, Inc, Santa Cruz, Calif., USA) and visualized using enhanced chemiluminescence (Thermo Fisher Scientific, Rockford, Ill., USA).
In a separate experiment, the effect of cyclization was examined on of the HBD1 (3-11) peptide. The cyclic HBD1 (3-11) was synthetized and tested on the in vitro osteoblast differentiation assay.

[5] = male, Sprague Dawley, plasma, iv
[6] = male, Sprague Dawley, plasma, sc

CC(C)C[C@@H]1NC(=O)CNC(=O)[C@H](CC(C)C)NC(=O)[C@H](Cc2c[nH]cn2)NC(=O)[C@H](CCCCN)NC(=O)[C@H](CCCCN)NC(=O)[C@@H]2CCCN2C(=O)[C@H](CCC(=O)O)NC(=O)[C@H](CCC(=O)O)NC1=O [compound 77] (cyclo(EEPKKHLGL))
stability in human plasma (in words) [1]: similar | remaining at 24 h, 1 μg/mL [1]: 98% | remaining at 48 h, 1 μg/mL [1]: 95%

CCCCCCCCCCCCCCCC(=O)N[C@@H](CCCCN)C(=O)N[C@@H](Cc1c[nH]cn1)C(=O)N[C@@H](Cc1c[nH]cn1)C(=O)N[C@@H](CC(C)C)C(=O)NCC(=O)N[C@@H](CC(C)C)C(=O)N[C@@H](CCC(=O)O)C(=O)N[C@@H](CCC(=O)O)C(=O)N1CCC[C@H]1C(=O)N[C@@H](CCCCN)C(=O)N[C@@H](CCCCN)C(=O)N[C@@H](CC(C)C)C(=O)N[C@@H](CCCNC(=N)N)C(=O)O [SEQ ID NO: 78, C16:0-KHHLGLEEPKKLR] (Palmitoyl-KHHLGLEEPKKLR-OH; C-terminus assumed)
Remaining parent peptide in human plasma 48 hours post spike [1]: 52%

CCCCCCCCCCCCCCCCCCCC(=O)N[C@@H](Cc1c[nH]cn1)C(=O)N[C@@H](CC(C)C)C(=O)NCC(=O)N[C@@H](CC(C)C)C(=O)N[C@@H](CCC(=O)O)C(=O)N[C@@H](CCC(=O)O)C(=O)N1CCC[C@H]1C(=O)N[C@@H](CCCCN)C(=O)N[C@@H](CCCCN)C(=O)O [SEQ ID NO: 74, C20:0-HLGLEEPKK] (Arachidoyl-HLGLEEPKK-OH; C-terminus assumed)
peptide exposure compared among acylated peptides (in words) [2]: lower exposure than HBD1 (3-11) with stearic acid at the N-terminus (C18:0)

HLGLEEPKK [SEQ ID NO: 10, HLGLEEPKK]
exposure after administration by either dose route (in words) [3]: no quantifiable exposure | stability in human plasma (in words) [1]: very stable | Remaining parent peptide in human plasma 24 hours post spike [1]: 92% | Remaining parent peptide in human plasma 48 hours post spike [1]: 87%

CCCCCCCCCCCCCCCC(=O)N[C@@H](Cc1c[nH]cn1)C(=O)N[C@@H](CC(C)C)C(=O)NCC(=O)N[C@@H](CC(C)C)C(=O)N[C@@H](CCC(=O)O)C(=O)N[C@@H](CCC(=O)O)C(=O)N1CCC[C@H]1C(=O)N[C@@H](CCCCN)C(=O)N[C@@H](CCCCN)C(=O)O [SEQ ID NO: 72, C16:0-HLGLEEPKK] (Palmitoyl-HLGLEEPKK-OH; C-terminus assumed)
bioavailability ([3]; male, Sprague Dawley, plasma, subcutaneous, sc vs iv, read-out: F (bioavailability)): 35% | AUC(0-t) [3, 5]: 4.46 µM·h | Cmax [3, 5]: 7890 nM | Tmax [3, 5]: 0.033 h | AUC(0-t) [3, 6]: 1.57 µM·h | Cmax [3, 6]: 410 nM | Tmax [3, 6]: 1 h

CCCCCCCCCCCCCCCC(=O)N[C@@H](Cc1c[nH]cn1)C(=O)N[C@@H](Cc1c[nH]cn1)C(=O)N[C@@H](CC(C)C)C(=O)NCC(=O)N[C@@H](CC(C)C)C(=O)N[C@@H](CCC(=O)O)C(=O)N[C@@H](CCC(=O)O)C(=O)N1CCC[C@H]1C(=O)N[C@@H](CCCCN)C(=O)N[C@@H](CCCCN)C(=O)O [compound 68] (Palmitoyl-HHLGLEEPKK-OH; C-terminus assumed)
Fold increase vs DM ± SE [4]: 2.52 ± 0.52 fold

CCCCCCCCCCCCCCCC(=O)N[C@@H](Cc1c[nH]cn1)C(=O)N[C@@H](CC(C)C)C(=O)NCC(=O)N[C@@H](CC(C)C)C(=O)N[C@@H](CCC(=O)O)C(=O)N[C@@H](CCC(=O)O)C(=O)N1CCC[C@H]1C(=O)N[C@@H](CCCCN)C(=O)N[C@@H](CCCCN)C(=O)O [compound 72] (Palmitoyl-HLGLEEPKK-OH)
AUC(0-t) [2]: 1.34 µM·h | Cmax [2]: 350 nM | Tmax [2]: 1 h | Tlast (last time point with detectable peptide) [2]: 8 h | stability in human plasma (in words) [1]: similar | remaining at 24 h, 1 μg/mL [1]: 94% | remaining at 48 h, 1 μg/mL [1]: 87%

KHHLGLEEPKKLR [SEQ ID NO: 1, KHHLGLEEPKKLR, reference compound]
exposure after administration by either dose route (in words) [3]: no quantifiable exposure | stability in human plasma (in words) [1]: markedly degraded | Remaining parent peptide in human plasma 24 hours post spike [1]: 29% | Remaining parent peptide in human plasma 48 hours post spike [1]: 18%

HLGLEEPKK [compound 10]
remaining at 24 h, 1 μg/mL [1]: 92% | remaining at 48 h, 1 μg/mL [1]: 87%

KHHLGLEEPKKLR [compound 1]
remaining at 24 h, 1 μg/mL [1]: 29% | remaining at 48 h, 1 μg/mL [1]: 18%

CCCCCCCCCCCCCCCC(=O)N[C@@H](CCCCN)C(=O)N[C@@H](Cc1c[nH]cn1)C(=O)N[C@@H](Cc1c[nH]cn1)C(=O)N[C@@H](CC(C)C)C(=O)NCC(=O)N[C@@H](CC(C)C)C(=O)N[C@@H](CCC(=O)O)C(=O)N[C@@H](CCC(=O)O)C(=O)N1CCC[C@H]1C(=O)N[C@@H](CCCCN)C(=O)N[C@@H](CCCCN)C(=O)N[C@@H](CC(C)C)C(=O)N[C@@H](CCCNC(=N)N)C(=O)O [compound 78] (Palmitoyl-KHHLGLEEPKKLR-OH)
AUC(0-t) [2]: 0.01 µM·h | Cmax [2]: 10 nM | Tmax [2]: 6 h | Tlast (last time point with detectable peptide) [2]: 8 h | remaining at 24 h, 1 μg/mL [1]: 58% | remaining at 48 h, 1 μg/mL [1]: 52%

CCCCCCCCCCCCCC(=O)N[C@@H](Cc1c[nH]cn1)C(=O)N[C@@H](CC(C)C)C(=O)NCC(=O)N[C@@H](CC(C)C)C(=O)N[C@@H](CCC(=O)O)C(=O)N[C@@H](CCC(=O)O)C(=O)N1CCC[C@H]1C(=O)N[C@@H](CCCCN)C(=O)N[C@@H](CCCCN)C(=O)O [compound 71] (Myristoyl-HLGLEEPKK-OH; C-terminus assumed)
Fold increase vs DM ± SE [4]: 1.98 ± 0.22 fold | AUC(0-t) [2]: 1.11 µM·h | Cmax [2]: 240 nM | Tmax [2]: 1 h | Tlast (last time point with detectable peptide) [2]: 6 h

CCCCCCCCCCCCCCCCCC(=O)N[C@@H](Cc1c[nH]cn1)C(=O)N[C@@H](Cc1c[nH]cn1)C(=O)N[C@@H](CC(C)C)C(=O)NCC(=O)N[C@@H](CC(C)C)C(=O)N[C@@H](CCC(=O)O)C(=O)N[C@@H](CCC(=O)O)C(=O)N1CCC[C@H]1C(=O)N[C@@H](CCCCN)C(=O)N[C@@H](CCCCN)C(=O)O [compound 69] (Stearoyl-HHLGLEEPKK-OH; C-terminus assumed)
Fold increase vs DM ± SE [4]: 2.48 ± 0.27 fold

CCCCCCCCCCCCCCCCCCCC(=O)N[C@@H](Cc1c[nH]cn1)C(=O)N[C@@H](Cc1c[nH]cn1)C(=O)N[C@@H](CC(C)C)C(=O)NCC(=O)N[C@@H](CC(C)C)C(=O)N[C@@H](CCC(=O)O)C(=O)N[C@@H](CCC(=O)O)C(=O)N1CCC[C@H]1C(=O)N[C@@H](CCCCN)C(=O)N[C@@H](CCCCN)C(=O)O [compound 70] (Arachidoyl-HHLGLEEPKK-OH; C-terminus assumed)
Fold increase vs DM ± SE [4]: 2.11 ± 0.11 fold
